Data reported in patent US11685738B2, “Fluorinated tetrahydronaphthyridinyl nonanoic acid derivatives and uses thereof” (OcuTerra Therapeutics, Inc., priority 2015, dated 2023).

Legend:
αvβ3 = αvβ3 (Homo sapiens (Human), UniProt P05106+P06756); experiment: αVβ3–vitronectin integrin binding assay (integrin-coupled beads, flow cytometry); details: ligand vitronectin
Text: (§1) All αV Integrins are known to bind to proteins with a RGD motif. Two RGD ligands were used in this study: Vitronectin (VN) as a ligand for αVβ3 and αVβ5 (Wayner et al., J. Cell Biol., 113 (4), 919-929, 1991), and LAP TGF-β1 (LAP1) as a ligand for αVβ6 and αVβ8 (Rognoni et al., Nat. Med., 20(4): 350-359, 2014). CWHM12 was used as a positive control for αVβ6 and αVβ8 (Henderson et al., Nat. Med. 19(12), 10.1038/nm.3282 2013), and Cilengitide as a positive control for αVβ3 and αVβ5 (Kumar et al., J. Pharmacol. Exp. Ther., 283, 843-853, 1997).
(§2) The integrin coupled Dyna beads were allowed to interact with respective ligands. The integrin-ligand complex was detected with either Primary/Secondary Antibody conjugated with Fluorescein Isothiocyanate (FITC). For αVβ3 and αVβ5, Vitronectin was used as a ligand and a primary antibody conjugated with FITC (Anti-VN-FITC Ab) was used to detect the interaction. For αVβ6 and αVβ8, LAP-TGF (31 was used as ligand and a primary antibody against LAP1 (Anti-LAP1 Ab) and a secondary antibody conjugated with FITC were used to detect the αVβ6/αVβ8-LAP-TGF (31 complex. Fluorescence was measured by Flow Cytometry analysis.
(§3) 5 mg of Dyna beads were weighed in a low protein binding microfuge (Eppendorf) tube (1.5 mL volume). The beads were re-suspended in 1 mL of Sodium Phosphate Buffer and vortexed at high speed for 30 seconds. The tube was then placed in a tube roller and tilt rotated for 10 min. After tilt rotation, the tube was placed on the Magna Spin and the beads were allowed to settle. The supernatant was discarded and the beads were washed three times. The beads were then re-suspended in 100 μL of Sodium Phosphate Buffer and 20 μL of washed beads were distributed into 5 low protein binding Eppendorf tubes (1 mg of beads in each tube). The beads were used for coupling integrins.
(§4) 20 μL of (1 mg) of beads were mixed with 20 μL of integrins (20 μg) and 20 μL of 3 M Ammonium Sulfate solution (final concentration of ammonium sulfate was 1M) to achieve a Bead: Protein ratio of 5 mg:100 μg. The solution was mixed gently and placed in a tube roller and incubated at 37° C. for 16 hours.
αVβ3/αVβ5 coupled beads were treated with the ligand at room temperature for 3 hours. The complex (Integrin+Ligand) was then treated with Anti-Vitronectin Ab conjugated with FITC overnight at 4° C. The complex was analyzed by either plate reader or Flow Cytometer.
10 μL of αVβ3/αVβ5 coupled beads were taken for the experiment. The concentration of integrins was 10 nM. 10 μL of vitronectin was taken. The concentration was 10 nM. Reaction between integrin coupled beads and vitronectin was considered as the full reaction, and reaction without vitronectin or a compound of the disclosure was considered as the blank reaction. The samples were incubated in low protein binding tubes at room temperature for 3 hours. The tubes were briefly spun and placed in a Magna spin. The supernatant was then removed. The beads were washed with assay buffer twice to remove excess vitronectin and then re-suspended in 150 μL of assay buffer containing 1:500 Anti-vitronectin Ab conjugated with FITC. The tubes were placed in a tube roller and incubated at 4° C. overnight. […] The beads were then re-suspended in […] PBS and analyzed by a Flow Cytometer (BD FACSCalibur, Software—BD Cell Quest Pro Version 6).
The samples were acquired using a BD FACSCalibur system and analyzed with BD Cell quest pro Version 6. […] Percentage of binding was calculated with respect to full reaction. […]

αvβ8 = αvβ8 (Homo sapiens (Human), UniProt P06756+P26012); experiment: αVβ8–LAP-TGF β1 integrin binding assay (integrin-coupled beads, flow cytometry); details: ligand LAP TGF-β1
αvβ8, sequence (P06756 31-992): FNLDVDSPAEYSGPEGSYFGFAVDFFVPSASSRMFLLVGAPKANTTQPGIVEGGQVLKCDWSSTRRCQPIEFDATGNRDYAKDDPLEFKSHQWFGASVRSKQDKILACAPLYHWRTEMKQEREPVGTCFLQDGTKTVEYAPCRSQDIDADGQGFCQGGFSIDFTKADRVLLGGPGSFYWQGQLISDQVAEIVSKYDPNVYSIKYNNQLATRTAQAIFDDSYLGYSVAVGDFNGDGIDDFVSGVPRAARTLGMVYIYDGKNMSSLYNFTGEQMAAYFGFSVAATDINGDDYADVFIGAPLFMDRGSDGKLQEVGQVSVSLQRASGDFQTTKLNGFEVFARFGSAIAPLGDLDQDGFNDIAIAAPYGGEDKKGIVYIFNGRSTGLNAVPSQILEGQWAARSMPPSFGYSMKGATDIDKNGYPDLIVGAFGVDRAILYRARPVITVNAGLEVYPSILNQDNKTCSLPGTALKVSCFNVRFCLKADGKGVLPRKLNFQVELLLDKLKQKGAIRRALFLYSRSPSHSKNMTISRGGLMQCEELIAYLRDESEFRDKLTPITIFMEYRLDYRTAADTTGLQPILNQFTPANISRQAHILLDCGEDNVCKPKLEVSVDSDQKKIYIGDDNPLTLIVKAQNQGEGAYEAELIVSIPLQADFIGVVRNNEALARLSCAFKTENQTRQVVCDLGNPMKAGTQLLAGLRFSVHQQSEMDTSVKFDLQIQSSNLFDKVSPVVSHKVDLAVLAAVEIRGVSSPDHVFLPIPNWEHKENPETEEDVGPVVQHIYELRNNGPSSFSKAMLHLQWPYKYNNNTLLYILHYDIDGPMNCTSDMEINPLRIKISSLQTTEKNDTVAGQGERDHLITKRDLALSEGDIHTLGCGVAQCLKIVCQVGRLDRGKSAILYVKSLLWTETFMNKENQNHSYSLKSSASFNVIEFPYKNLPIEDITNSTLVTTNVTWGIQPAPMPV
αvβ8, sequence (P26012 43-684): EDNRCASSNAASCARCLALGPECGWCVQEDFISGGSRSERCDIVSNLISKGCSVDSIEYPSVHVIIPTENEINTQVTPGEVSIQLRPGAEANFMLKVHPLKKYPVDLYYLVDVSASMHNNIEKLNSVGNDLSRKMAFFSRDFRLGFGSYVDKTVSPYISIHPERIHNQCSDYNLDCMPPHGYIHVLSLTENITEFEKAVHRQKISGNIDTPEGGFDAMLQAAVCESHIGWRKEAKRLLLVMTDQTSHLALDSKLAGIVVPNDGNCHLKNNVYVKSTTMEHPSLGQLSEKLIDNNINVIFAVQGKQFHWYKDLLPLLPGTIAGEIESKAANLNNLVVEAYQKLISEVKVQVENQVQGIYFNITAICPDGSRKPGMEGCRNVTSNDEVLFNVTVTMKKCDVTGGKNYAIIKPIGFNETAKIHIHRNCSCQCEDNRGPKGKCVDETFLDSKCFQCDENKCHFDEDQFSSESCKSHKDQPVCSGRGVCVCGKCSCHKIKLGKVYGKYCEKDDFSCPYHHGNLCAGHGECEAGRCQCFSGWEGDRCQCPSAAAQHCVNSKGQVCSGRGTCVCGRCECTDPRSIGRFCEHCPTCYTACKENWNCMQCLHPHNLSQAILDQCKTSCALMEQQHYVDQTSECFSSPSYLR
Text: as §1, §2, §3, §4
(§5) αVβ6/αVβ8 coupled beads were treated with the ligand LAP TGF-β1 (LAP1) at room temperature for 3 hours. The complex (Integrin+Ligand) was then treated with primary Ab (Anti-LAP1 Ab) overnight at 4° C. The whole complex (Integrin+Ligand+Primary Ab) was treated with Secondary Ab conjugated with FITC and incubated for 2 hours. The complex was analyzed by either plate reader or Flow Cytometer.
(§6) 10 μL of αVβ6/αVβ8 coupled beads were taken for the experiment. The concentration of integrins was 10 nM. 10 μL of LAP1 was taken (10 nM for aVβ6 and 20 nM for aVβ8). Reaction between integrin coupled beads and LAP1 was considered as the full reaction, and reaction without LAP1 or a compound of the disclosure was considered as the blank reaction. The samples were incubated in low protein binding tubes at room temperature for 3 hours. The tubes were briefly spun and placed in a Magna spin. The supernatant was removed. The beads were washed with assay buffer twice to remove excess LAP1 and then re-suspended in […] assay buffer containing 1:200 anti-LAP1 Ab (primary Ab). The tubes were placed in a tube roller and incubated at 4° C. overnight. After a brief spin, the tubes were then placed in a Magna spin and the supernatant was removed. The beads were washed with assay buffer twice to remove excess primary Ab and then re-suspended in 150 μL of assay buffer containing 1:500 secondary Ab conjugated with FITC. The tubes were incubated at room temperature for 2 hours in a tube roller. After a brief spin, the tubes were placed in a Magna spin and the supernatant was removed. The beads were washed with assay buffer twice followed by PBS. The beads were then re-suspended in 300 μL of PBS and analyzed by a Flow Cytometer (BD FACSCalibur, Software—BDcell Quest Pro Version 6). […]

αvβ6 = αvβ6 (Homo sapiens (Human), UniProt P06756+P18564); experiment: αVβ6–LAP-TGF β1 integrin binding assay (integrin-coupled beads, flow cytometry); details: for IC50: ligand LAP TGF-β1; for αvβ8/αvβ6: ratio of αvβ8 IC50 to αvβ6 IC50
αvβ6, sequence (P06756 31-992): as the sequence (P06756 31-992) above
αvβ6, sequence (P18564 22-707): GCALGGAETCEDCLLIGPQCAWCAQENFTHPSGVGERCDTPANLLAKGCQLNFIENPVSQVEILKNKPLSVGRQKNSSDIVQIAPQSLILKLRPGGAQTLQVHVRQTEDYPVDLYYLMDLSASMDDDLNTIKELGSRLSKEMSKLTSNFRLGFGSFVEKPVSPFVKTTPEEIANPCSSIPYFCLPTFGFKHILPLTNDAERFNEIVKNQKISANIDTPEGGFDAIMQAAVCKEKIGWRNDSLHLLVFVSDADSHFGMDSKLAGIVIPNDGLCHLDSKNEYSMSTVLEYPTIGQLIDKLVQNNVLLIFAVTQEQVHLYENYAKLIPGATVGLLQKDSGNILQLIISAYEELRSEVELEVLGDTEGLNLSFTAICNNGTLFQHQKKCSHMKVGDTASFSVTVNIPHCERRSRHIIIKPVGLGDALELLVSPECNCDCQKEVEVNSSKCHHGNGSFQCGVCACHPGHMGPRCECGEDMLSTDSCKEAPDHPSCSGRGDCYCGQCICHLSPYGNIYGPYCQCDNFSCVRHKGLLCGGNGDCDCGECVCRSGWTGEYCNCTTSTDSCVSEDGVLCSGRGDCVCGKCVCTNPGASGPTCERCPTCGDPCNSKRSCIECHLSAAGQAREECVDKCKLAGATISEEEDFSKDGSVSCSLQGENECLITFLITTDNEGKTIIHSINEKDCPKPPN
Text: as §1, §2, §3, §4, §5, §6

αvβ3, sequence (P06756 31-992): as the sequence (P06756 31-992) above
αvβ3, sequence (P05106 27-718): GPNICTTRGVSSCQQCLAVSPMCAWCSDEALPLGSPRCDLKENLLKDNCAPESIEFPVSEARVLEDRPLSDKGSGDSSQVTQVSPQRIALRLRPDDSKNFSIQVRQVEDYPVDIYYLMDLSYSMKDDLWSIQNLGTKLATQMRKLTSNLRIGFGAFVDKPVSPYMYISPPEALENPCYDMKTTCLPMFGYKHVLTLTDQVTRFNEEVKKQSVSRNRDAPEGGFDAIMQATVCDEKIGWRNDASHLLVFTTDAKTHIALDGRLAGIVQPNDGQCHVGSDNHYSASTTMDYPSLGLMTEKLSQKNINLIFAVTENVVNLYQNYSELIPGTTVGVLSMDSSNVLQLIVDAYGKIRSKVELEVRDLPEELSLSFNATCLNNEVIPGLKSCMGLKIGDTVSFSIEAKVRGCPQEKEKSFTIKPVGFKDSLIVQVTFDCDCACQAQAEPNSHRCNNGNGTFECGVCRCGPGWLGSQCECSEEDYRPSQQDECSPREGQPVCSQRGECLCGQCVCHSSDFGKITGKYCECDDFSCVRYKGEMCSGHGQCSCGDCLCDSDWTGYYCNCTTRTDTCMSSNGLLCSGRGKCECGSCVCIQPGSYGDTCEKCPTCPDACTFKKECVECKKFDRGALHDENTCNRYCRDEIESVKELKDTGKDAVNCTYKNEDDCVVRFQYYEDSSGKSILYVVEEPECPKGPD

IC50 (αvβ3) [nM] | IC50 (αvβ8) [nM] | IC50 (αvβ6) [nM] | αvβ8/αvβ6 (αvβ6) | SMILES
65.7 | 63.9 | 9.97 | 6.41 | O=C(O)CC(CCCCCCc1ccc2c(n1)NCCC2)c1cnc2cc(F)ccc2c1 (stereo not shown) [Compound A5, 3-(7-fluoroquinolin-3-yl)-9-(5,6,7,8-tetrahydro-1,8-naphthyridin-2-yl)nonanoic acid]
9 | 78.1 | 11.6 | 6.71 | O=C(O)CC(CCCCCCc1ccc2c(n1)NCCC2)c1cnc(C(F)(F)F)nc1 (stereo not shown) [Compound A2, 9-(5,6,7,8-tetrahydro-1,8-naphthyridin-2-yl)-3-(2-(trifluoromethyl)pyrimidin-5-yl)nonanoic acid]
1.4 | 21.4 | 5.69 | 3.75 | O=C(O)CC(CCCCCCc1ccc2c(n1)NCCC2)c1cnc2ccc(F)cc2c1 (stereo not shown) [Compound A4, 3-(6-fluoroquinolin-3-yl)-9-(5,6,7,8-tetrahydro-1,8-naphthyridin-2-yl)nonanoic acid]
4.3 | 151 | 14.8 | 10.18 | O=C(O)CC(CCCCCCc1ccc2c(n1)NCCC2)c1ccc(Cl)c(C(F)(F)F)c1 (stereo not shown) [Compound A23, 3-(4-chloro-3-(trifluoromethyl)phenyl)-9-(5,6,7,8-tetrahydro-1,8-naphthyridin-2-yl)nonanoic acid]
